# Results: article PMC10762078, “Role of UPF1-LIN28A interaction during early differentiation of pluripotent stem cells” (Nature Communications, 2024)
# Ends that are not written are not given here.
# Assays:
# [1] = tested on: HeLa, PA-1 and CHA15 cells; assay: Cell-penetrating efficiency of CPP-FITC by confocal microscopy; type: cell-based; conditions: PA-1, CHA15
# Method: (§1) For CPP-conjugated peptide delivery, HeLa, 293T, and PA-1 cells were incubated with CPP-conjugated peptides or CPP-FITC at 2 μM in DMEM with 10% FBS for 12 h a day before cell harvest. hPSCs were treated with CPP-conjugated peptides at 10 μM in mTeSR Plus Medium, and the peptide-containing medium was changed every day over 10 days. The ROCK inhibitor (Tocris Bioscience, Y-27632) treated-hPSCs were dissociated into single cells using Accutase (Merck, SCR005) and differentiated into ectoderm, mesoderm, and endoderm using the STEMdiff Trilineage Differentiation Kit ([…] Technologies, 05230) following the manufacturer’s protocol. Differentiated cells treated with CPP-conjugated peptides were analysed at 0, 3, and 5 days for ectoderm and endoderm, and at 0, 3, and 4 days for mesoderm.
# Immunofluorescence staining, proximity ligation assay imaging, and cell-penetrating efficiency of CPP-FITC were imaged with a confocal laser scanning microscope (Leica, TSC SP5) or immunofluorescence microscope (Leica, DM5000B). Z-stacks were captured, with sections spanning the entire cell. The LAS X Life Science program was used to obtain the maximum intensity projections and cross-sections of the confocal images.
# DAPI FITC Merge DAPI FITC Merge CHA15 H9 Pro2 H9
# No peptide CPP-FITC Calnexin
# For 2-day treatm ent For 4-day treatm ent […]
# Supplementary Fig. 5 a HeLa, PA- 1, and CHA15 wer e treated with CPP-FITC. […]
# [2] = tested on: let-7a, let-7g, miR-16-5p and their targets in CHA15 cells; assay: RT-qPCR of mature LIN28A-regulated miRNAs and CDF of let-7-5p / miR-16-5p target mRNAs (Supplementary Fig. 6f); type: cell-based, human; conditions: Fig. s6f, cumulative curves; P2/P1; Asymptotic two-sample Kolmogorov-Smirnov test, two-sided
# Method: cDNA was synthesised using RevertAid Reverse Transcriptase (Thermo Fisher Scientific, EP0441) with synthesised random hexamer (Macrogen) for total RNA or stem-loop primers for miRNA. For RT-qPCR reactions, the SensiFAST SYBR No-ROX kit (Meridian Bioscience) was used according to the manufacturer’s protocol. All data analysis and visualisation were conducted using R 3.6.1 [www.r-project.org] or GraphPad Prism 10. RT primers for miRNA and RT-qPCR primer sequences are provided in Supplementary Data 6.
# Genes regulated by miRNA let-7-5p and miR-16-5p were determined by TargetScanHuman. Among miRNA targets sorted by cumulative weighted context++ score (CWCS)[57], the 100 top genes were selected and analysed using CDF. […]
# Scatter
# (bottom panel), respectively. f Levels of m ature endogenous m iRNAs in CHA15 cells, which were regulated by LIN28A, were assessed using RT -qPCR. Cum ulative f raction of log2 fold change in the expression of genes regulated by let-7-5p and m iR-16- 5p was shown as CDF graphs. T he relative level of m RNA was norm alised to that of U6 snRNA in (c, d, and f). K–S tests were used for e and f. Unpaired Student’s t-test was used for c , d, and f . * p < 0.05, ** p < 0.01, *** p < 0.001. Exact p -values were provided in Source data. Data are presented as m ean values ± SEM. All statistical test used were two- sided. T he m inim um num ber of independent biological replicate experim ents was a and e n = 2, b–d and f n = 3. T he experim ents were conducted three tim es, each iteration producing consistent results.
# [3] = tested on: CHA15 cells transcriptome / NMD targets; assay: RNA-seq of CPP-peptide-treated CHA15 cells (NMD targets, SDGs; Fig. 6a, b, d; Supplementary Fig. 6a; Supplementary Data 2); type: cell-based, Homo sapiens; conditions: CHA15, P2 vs P1 plot (Fig. 6d)
# Method: as §1, with “and the peptide-containing medium was changed every day over 10 days.” left out
# Total RNA concentration was calculated using Quant-IT RiboGreen (Invitrogen, R11490). To assess the integrity of the total RNA, samples were run on a TapeStation RNA screentape (Agilent). Only high-quality RNA preparations with RNA integrity number greater than 7.0 were used for the RNA library construction. A library was independently prepared with 1 μg of total RNA from each sample using the Illumina TruSeq Stranded mRNA Sample Prep Kit (Illumina, 20020594). The first step in the workflow involves purifying poly‐A-containing mRNA molecules using poly‐T‐attached magnetic beads. Following purification, mRNA was fragmented into small pieces using divalent cations at elevated temperatures. The cleaved RNA fragments were copied into first-strand cDNA using SuperScript II reverse transcriptase (Invitrogen, 18064022) and random primers. This was followed by second-strand cDNA synthesis using DNA polymerase I, RNase H, and dUTP. These cDNA fragments underwent an end repair process, adding a single ‘A’ base and ligating the adapters. The products were purified and enriched via PCR to create the final cDNA library. The libraries were quantified using the KAPA Library Quantification Kits for Illumina Sequencing platforms according to the qPCR Quantification Protocol Guide (KAPA BIOSYSTEMS, KR0405) and qualified using the TapeStation D1000 ScreenTape (Agilent). Indexed libraries were then submitted to an Illumina NovaSeq (Illumina), and Macrogen Inc. performed paired-end (2 × 100 bp) sequencing.
# We pre-processed the raw reads from the sequencer to remove low-quality reads and adapter sequences before analysis and aligned the processed reads to Homo sapiens (GRCh37) using HISAT v2.1.0[52]. HISAT utilises two indices for alignment (a global whole-genome index and tens of thousands of small local indexes). These two types of indices are constructed using the same Burrows-Wheeler transform (BWT)/graph FM index (GFM) as Bowtie2. The reference genome sequence of Homo sapiens (GRCh37) and the annotation data were downloaded from the NCBI database. Transcript assembly was processed using StringTie v1.3.4d[53],[54]. […] Differentially expressed genes (DEGs) were analysed by ratio of FPKM or using DESeq2 with read counts. Log2 fold-change value of the NMD targets[25],[32], three germ layer markers, miRNA targets, or SDGs was converted into cumulative frequency curve using the R function, ‘ecdf’ (version 4.0.5). Gene functional classification and Gene ontology (GO) were performed using g:Profiler[56].
# [4] = molecular target: T1, His-LIN28A (Homo sapiens, UniProt Q9H9Z2); assay: SPR analyte-ligand binding screening of eight peptides (P1-P8); conditions: SPR screening at 15 μM, 3 min association, 6 min dissociation
# T1 construct: purchased LS-bio LS-G637
# T1 sequence (Q9H9Z2 1-209): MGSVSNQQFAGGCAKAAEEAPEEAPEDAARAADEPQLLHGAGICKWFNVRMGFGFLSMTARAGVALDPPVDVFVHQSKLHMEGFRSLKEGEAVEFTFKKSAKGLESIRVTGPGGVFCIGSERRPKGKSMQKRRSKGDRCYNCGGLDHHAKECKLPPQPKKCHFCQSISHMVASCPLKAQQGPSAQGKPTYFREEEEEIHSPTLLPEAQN
# Method: For ligand immobilisation, the nitrilotriacetic acid (NTA) surface gold sensor chip (icluebio) was activated with 5 mM NiCl2 (Xantec) at a flow rate of 30 μL/min, following equalisation with 1× HBS-T buffer. His-LIN28A (LS-bio, LS-G637) was used as a ligand protein and was applied to a sensor chip at a flow rate of 10 μL/min for 40 min after dilution in 1× HEPES-buffered saline (HBS-T) buffer at a 1/20 ratio. Approximately 1000 resonance units (RU) were bonded to the sensor chip after ligand immobilisation. RU was measured using iMSPR-ProX (icluebio). An indigenous NTA sensor chip was used as a reference channel.
# Analyte-ligand binding screening was performed by tethering the ligand and reference channels in the connected mode. […] After equalisation with 1× HBS-T buffer, the sensor chip was treated with each peptide for 3 min and then for 6 min with 1× HBS-T buffer for peptide dissociation.
# [5] = molecular target: T2, His-LIN28A (UniProt Q9H9Z2 1-209); assay: SPR
# T2 chain: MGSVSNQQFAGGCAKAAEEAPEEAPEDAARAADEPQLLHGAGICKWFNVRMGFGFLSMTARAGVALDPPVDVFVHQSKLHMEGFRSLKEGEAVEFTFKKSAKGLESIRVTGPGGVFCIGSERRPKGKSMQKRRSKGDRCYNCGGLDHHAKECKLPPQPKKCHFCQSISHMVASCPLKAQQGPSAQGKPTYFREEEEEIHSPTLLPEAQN
# [6] = molecular target: T2, His-LIN28A; assay: SPR
molecule,measurement,setting,value
"CPP-FITC: CPP conjugated to FITC, used to evaluate cell-penetrating ability in cells (KKKWCRKKK; also: FITC conjugate)",intracellular distribution,[1],distribution of CPP-FITC in the cytoplasm
"KKKWCRKKKMPELQKLQQLKDE [CPP-P2, CPP conjugated to P2; negative control, reference compound]","let-7-5p targets, log2FC cumulative curve: Kolmogorov-Smirnov D",[2],0.07965
same,"miR-16-5p targets, log2FC cumulative curve: Kolmogorov-Smirnov D",[2],0.2271
same,ACADL expression (dot plot),[3],-0.6893
same,AOC1 expression (dot plot),[3],-1.502
same,BLOC1S5-TXNDC5 expression (dot plot),[3],-0.1425
same,TRIM39-RPP21 expression (dot plot),[3],0.7164
"N-STSFDRMQSALKTFAVD-C [P4, peptide derived from the UPF1 (419–700) domain]",binding affinity vs others,[4],slightly
SSADEKRYRALKRTAERELLMNA [P8],koff,[5],0.0137 s⁻¹
same,Kd,[6],5.2 µM
